According to ChEMBL document CHEMBL1133892 (Bioorg Med Chem Lett, 2001):

What was measured:
[1] = molecular target: T1, Prostaglandin E2 receptor EP2 subtype (Mus musculus, UniProt Q62053); assay: Binding affinity towards mouse Prostanoid EP2 receptor expressed in CHO cells.; format: cell-based
[2] = molecular target: Prostaglandin E2 receptor EP4 subtype (Mus musculus, UniProt P32240); assay: Binding affinity towards mouse Prostanoid EP4 receptor in CHO cells.; format: cell-based
[3] = molecular target: T2, Prostaglandin E2 receptor EP1 subtype (Mus musculus, UniProt P35375); assay: Binding affinity towards mouse Prostanoid EP1 receptor in CHO cells.; format: cell-based
T2 sequence (P35375 whole entry): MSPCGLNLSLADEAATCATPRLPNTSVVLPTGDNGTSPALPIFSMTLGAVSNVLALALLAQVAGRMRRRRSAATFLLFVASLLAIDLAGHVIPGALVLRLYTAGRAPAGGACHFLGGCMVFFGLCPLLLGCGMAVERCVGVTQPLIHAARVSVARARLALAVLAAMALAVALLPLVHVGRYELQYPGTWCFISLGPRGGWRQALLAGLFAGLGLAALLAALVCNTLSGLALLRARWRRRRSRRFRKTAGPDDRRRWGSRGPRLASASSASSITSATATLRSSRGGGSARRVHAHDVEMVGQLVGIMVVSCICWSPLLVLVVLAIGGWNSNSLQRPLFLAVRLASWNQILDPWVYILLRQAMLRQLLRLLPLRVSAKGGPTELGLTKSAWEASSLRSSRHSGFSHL

Prostacyclin receptor [4] = molecular target: T3, Prostacyclin receptor (Homo sapiens, UniProt P43119); assay: Binding affinity towards human Prostanoid IP receptor in CHO cells.; format: cell-based
[5] = molecular target: T4, Prostaglandin E2 receptor EP3 subtype (Mus musculus, UniProt P30557); assay: Binding affinity towards mouse Prostanoid EP3 receptor in CHO cells.; format: cell-based
T4 sequence (P30557 whole entry): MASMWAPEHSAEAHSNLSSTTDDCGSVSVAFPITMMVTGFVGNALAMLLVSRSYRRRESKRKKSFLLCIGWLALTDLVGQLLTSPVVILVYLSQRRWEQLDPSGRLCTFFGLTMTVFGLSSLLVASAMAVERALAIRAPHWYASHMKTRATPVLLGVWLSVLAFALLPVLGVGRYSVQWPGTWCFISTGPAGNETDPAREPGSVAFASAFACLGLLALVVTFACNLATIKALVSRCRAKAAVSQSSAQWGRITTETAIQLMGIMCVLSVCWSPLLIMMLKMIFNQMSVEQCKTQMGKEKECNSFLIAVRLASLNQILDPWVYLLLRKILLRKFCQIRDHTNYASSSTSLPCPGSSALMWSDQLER

[6] = molecular target: T1, Prostaglandin E2 receptor EP2 subtype; assay: Effective concentration which increases intracellular c-AMP production in mouse Prostanoid EP2 receptor; format: functional, cell-based
Rattus norvegicus [7] = assay: Suppression of uterine motility for the 5-min period before and after the commencenment of intravenous administration to anesthetized pregnant rats; format: functional
Prostacyclin receptor [8] = molecular target: T3, Prostacyclin receptor; assay: Effective concentration which increases intracellular c-AMP production in human Prostanoid IP receptor; format: functional, cell-based
Rattus norvegicus [9] = assay: Evaluated for its maximal response of hypotensive effect at 1000 ug/kg, iv; format: functional
[10] = molecular target: T1, Prostaglandin E2 receptor EP2 subtype; assay: Effective concentration which increases intracellular c-AMP production in mouse EP2- receptor; format: functional, cell-based
[11] = molecular target: Prostaglandin E2 receptor EP2 subtype (Homo sapiens, UniProt P43116); assay: Compound was evaluated for its competitive binding affinity towards human Prostanoid EP2 receptor in CHO cells expressing prostanoid receptor; format: cell-based
Rattus norvegicus [12] = assay: Evaluated for its maximal response of hypotensive effect at 300 ug/kg, iv; format: functional

Prostaglandin E2 receptor EP4 subtype, sequence (P32240 whole entry): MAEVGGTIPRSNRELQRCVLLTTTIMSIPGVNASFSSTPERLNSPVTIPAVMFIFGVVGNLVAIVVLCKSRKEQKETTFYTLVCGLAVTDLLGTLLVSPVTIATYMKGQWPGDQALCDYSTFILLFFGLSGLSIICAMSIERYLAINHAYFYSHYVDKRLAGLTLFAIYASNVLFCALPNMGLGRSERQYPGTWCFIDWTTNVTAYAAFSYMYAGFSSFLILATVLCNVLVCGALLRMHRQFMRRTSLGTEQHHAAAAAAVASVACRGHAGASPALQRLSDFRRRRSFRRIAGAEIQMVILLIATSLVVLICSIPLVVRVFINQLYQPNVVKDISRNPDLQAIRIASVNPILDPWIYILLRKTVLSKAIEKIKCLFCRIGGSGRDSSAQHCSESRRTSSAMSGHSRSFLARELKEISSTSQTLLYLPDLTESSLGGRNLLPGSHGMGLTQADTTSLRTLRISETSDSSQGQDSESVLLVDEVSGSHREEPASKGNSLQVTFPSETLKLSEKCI
T1 sequence (Q62053 whole entry): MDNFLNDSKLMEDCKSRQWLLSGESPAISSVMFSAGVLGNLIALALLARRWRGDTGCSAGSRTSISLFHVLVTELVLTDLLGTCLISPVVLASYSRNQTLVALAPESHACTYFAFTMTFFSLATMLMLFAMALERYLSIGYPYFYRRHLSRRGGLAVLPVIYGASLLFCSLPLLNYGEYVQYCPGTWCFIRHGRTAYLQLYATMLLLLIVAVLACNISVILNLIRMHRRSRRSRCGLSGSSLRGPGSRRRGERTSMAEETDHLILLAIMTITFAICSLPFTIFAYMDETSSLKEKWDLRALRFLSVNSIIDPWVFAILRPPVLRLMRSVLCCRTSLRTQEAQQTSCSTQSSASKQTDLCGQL
T3 sequence (P43119 whole entry): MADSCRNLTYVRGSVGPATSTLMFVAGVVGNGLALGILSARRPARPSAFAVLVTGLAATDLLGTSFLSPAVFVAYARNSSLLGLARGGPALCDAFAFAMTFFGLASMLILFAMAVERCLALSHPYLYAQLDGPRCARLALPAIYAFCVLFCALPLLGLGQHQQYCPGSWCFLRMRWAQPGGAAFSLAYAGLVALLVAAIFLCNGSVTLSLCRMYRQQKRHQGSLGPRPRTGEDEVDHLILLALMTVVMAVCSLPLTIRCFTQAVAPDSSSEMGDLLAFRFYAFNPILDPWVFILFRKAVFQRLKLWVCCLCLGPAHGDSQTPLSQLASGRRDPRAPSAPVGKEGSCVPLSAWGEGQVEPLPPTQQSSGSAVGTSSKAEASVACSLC
Prostaglandin E2 receptor EP2 subtype (Homo sapiens, UniProt P43116), sequence (P43116 whole entry): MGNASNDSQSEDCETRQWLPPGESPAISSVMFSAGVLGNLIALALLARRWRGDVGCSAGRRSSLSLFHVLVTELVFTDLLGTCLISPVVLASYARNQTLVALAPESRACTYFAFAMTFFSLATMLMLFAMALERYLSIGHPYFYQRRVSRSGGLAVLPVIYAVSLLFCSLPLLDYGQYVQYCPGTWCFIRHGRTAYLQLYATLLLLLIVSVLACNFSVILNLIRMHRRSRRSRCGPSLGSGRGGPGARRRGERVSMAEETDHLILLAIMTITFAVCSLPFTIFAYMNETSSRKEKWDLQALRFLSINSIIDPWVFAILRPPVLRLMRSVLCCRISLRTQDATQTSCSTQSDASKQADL

| Ki [1] [nM] | Ki [2] [nM] | Ki [3] [nM] | Ki (Prostacyclin receptor [4]) [nM] | Ki [5] [nM] | EC50 [6] [nM] | EC50 (Prostacyclin receptor [8]) [nM] | EC50 [10] [nM] | Ki [11] [nM] | SMILES | ED50 (Rattus norvegicus [7]) [mg/kg] | Max response (Rattus norvegicus [9]) [delta mmHg] | Max response (Rattus norvegicus [12]) [delta mmHg] |
| --- | --- | --- | --- | --- | --- | --- | --- | --- | --- | --- | --- | --- |
| 11 | > 10000 | 5100 | > 10000 | > 10000 | 1400 | – | – | – | CCC1([C@@H](O)C/C=C/[C@@H]2[C@@H](C/C=C\CCCC(=O)O)CC[C@H]2O)CCC1 | – | – | – |
| 13 | > 10000 | > 10000 | > 10000 | > 10000 | 39 | – | – | – | CCC1([C@@H](O)C/C=C/[C@@H]2[C@@H](C/C=C\CCCC(=O)O)[C@@H](Cl)C[C@H]2O)CCC1 | – | – | – |
| 92 | > 10000 | > 10000 | – | – | 43 | > 10000 | – | – | CCCC1([C@@H](O)C/C=C/C2[C@H](O)CC(=O)[C@@H]2C/C=C/CCCC(=O)O)CCC1 (some centres undefined) | 0.275 | 22.8 | – |
| 40 | > 10000 | > 10000 | > 10000 | – | 45 | – | – | – | CC(C)CC1([C@@H](O)C/C=C/[C@H]2[C@H](O)CC(=O)[C@@H]2C/C=C\CCCC(=O)O)CCC1 | – | – | – |
| 20 | 2100 | 1600 | > 10000 | 830 | 130 | – | – | – | CCCCCC1([C@@H](O)C/C=C/[C@H]2[C@H](O)CC(=O)[C@@H]2C/C=C\CCCC(=O)O)CCC1 | – | – | – |
| 370 | > 10000 | > 10000 | > 10000 | – | 580 | – | – | – | CCCC1([C@@H](O)C/C=C/[C@H]2[C@H](O)CC(=O)[C@@H]2C/C=C\CCCC(=O)O)CCCC1 | – | – | – |
| 38 | – | 18 | > 10000 | 5 | 2.1 | 260 | – | – | CCCCC[C@@H](O)/C=C/[C@H]1[C@H](O)CC(=O)[C@@H]1C/C=C\CCCC(=O)O | > 1.8 | – | – |
| 3300 | > 10000 | > 10000 | – | – | > 10000 | – | – | – | CCCC1([C@@H](O)C/C=C/[C@H]2[C@H](O)CC(=O)[C@@H]2C/C=C\CCCC(=O)O)CCCCC1 | – | – | – |
| 87 | 3.3 | 100 | 150 | 5 | 2.6 | 1.8 | – | – | CCCCCC(O)/C=C/[C@H]1[C@H](O)CC(=O)[C@@H]1CCCCCCC(=O)O (single isomer, unassigned) [ALPROSTADIL] | – | – | – |
| 1100 | > 10000 | > 10000 | – | > 10000 | – | – | – | – | CCCC1([C@@H](O)C/C=C/C2[C@H](O)CC(=O)[C@@H]2CC#CCCCC(=O)O)CCC1 (some centres undefined) | – | – | – |
| 30 | > 10000 | > 10000 | > 10000 | – | 11 | – | – | – | CCC1([C@@H](O)C/C=C/[C@H]2[C@H](O)CC(=O)[C@@H]2C/C=C\CCCC(=O)O)CCC1 | – | – | – |
| 330 | > 10000 | > 10000 | > 10000 | 1200 | 220 | – | – | – | CCCC1([C@@H](O)C/C=C/[C@H]2[C@H](O)CC(=O)[C@@H]2C/C=C\CCCC(=O)O)CCC1 | – | – | – |
| 43 | > 10000 | 780 | > 10000 | 2000 | 71 | – | – | – | CCCCC1([C@@H](O)C/C=C/[C@H]2[C@H](O)CC(=O)[C@@H]2C/C=C\CCCC(=O)O)CCC1 | – | – | – |
| 2400 | > 10000 | > 10000 | > 10000 | > 10000 | – | 37 | 33 | – | CCCC1([C@@H](O)C/C=C/C2[C@H](O)CC(=O)[C@@H]2CCCCCCC(=O)OC)CCC1 (some centres undefined) | – | – | – |
| 25 | > 10000 | > 10000 | – | – | 54 | > 10000 | – | – | CCCC1([C@@H](O)C/C=C/C2[C@H](O)CC(=O)[C@@H]2CCc2ccc(C(=O)O)cc2)CCC1 (some centres undefined) | – | – | – |
| 2.2 | > 10000 | 3400 | > 10000 | > 10000 | 2.8 | – | – | 0.74 | CCC1([C@@H](O)C/C=C/[C@@H]2[C@@H](C/C=C\CCCC(=O)O)[C@H](Cl)C[C@H]2O)CCC1 | 0.0329 | – | 24.4 |
| 73 | > 10000 | > 10000 | 870 | > 10000 | 32 | 25 | – | – | CCCC1([C@@H](O)C/C=C/C2[C@H](O)CC(=O)[C@@H]2CCCCCCC(=O)O)CCC1 (some centres undefined) | 0.455 | 39.8 | – |
